Experimental data reported in patent publication US10751304B2, “Topical and transdermal delivery of HIF-1 modulators to prevent and treat chronic wounds” (The Board of Trustees of the Leland Stanford Junior …, priority 2008, dated 2020).
Entries after “also recorded” stand apart in the source; their conditions may differ.

How the values were obtained:
[1] = system: pressure ulcers on the dorsum of aged mice; assay: Murine pressure (decubitus) ulcer model in aged mice; assay type: in vivo; conditions: n=6
Text: (§1) Pressure ulcers on the dorsum of aged mice (19 month, NIA) and Diabetic (Db/Db) C57Bl/6 mice (n=6 per group) where created using two ceramic magnets (12 mm diameter and 5 mm thick, and average weight of 2.4 g) that apply 50 mm Hg pressure to the skin between them (Stadler et. al. J Invest Surg. 2004 July-August; 17(4):221-7). A single ischemia/reperfusion (I/R) cycle consists of placement of magnets (ischemia) for a designated time period followed by release (reperfusion). Three ischemia-reperfusion cycles were used in each animal to initiate decubitus ulcer formation (either in 3 h or 12 h cycles). Animals were housed individually, to prevent the accidental dislocation of the magnets and to prevent tampering with the resultant ulcer.
(§2) CD31 staining was performed on paraffin embedded 5-micron wound sections (1:50, Santa Cruz Biotechnology, Santa Cruz, Calif.) diluted in blocking goat serum overnight at 4° C. […] Sections were then mounted with Vectashield plus DAPI (Vector Laboratories, Burlingame, Calif.), and analyzed using a Zeiss Axioplan 2 light-fluorescent microscope (Carl Zeiss Vision, Germany) equipped with Zeiss AxioCam HR digital imaging software (Carl Zeiss Vision). […]
We evaluated the ability of DFO to prevent pressure ulcer formation, which has been associated with HIF-1α dysfunction and diabetes, using a previously described murine pressure ulcer model. […]

[2] = system: excisional wounds of diabetic (Db/Db) mice; assay: Murine excisional wound healing model, diabetic (Db/Db) mice; assay type: in vivo; conditions: topical, delivery control day 23
Text: Young (8 weeks, Jackson Laboratories) aged (18-24 months, National Institute of Aging aged rodent colony), and Diabetic (Db/Db) C57/BL6 mice (n=4 per group) underwent excisional wound biopsies in accordance with the Stanford University Institutional Animal Care and Use Committees. Wounds were made as previously described. Briefly, two 6-mm circular, full-thickness wounds were made on the dorsum of mice. A 12 mm diameter, 0.5 mm thick donut shaped silicone ring (Grace Bio-Labs, Bend, Oreg.) was then placed around the wounds preventing premature skin contracture. […] Wounds were dressed with a sterile occlusive dressing that was changed daily, monitored, and photographed every other day until closure. […]
as §2
Transdermal delivery of DFO accelerates murine wound healing: Given the optimal release properties and structural parameters determined above, we sought to evaluate the ability of our DFO delivery device to improve gross wound healing in diabetic mice. […]

[3] = DFO patch release and skin penetration (Example 4); assay type: in vitro ADME
diabetic ulcers = assay: Murine pressure ulcer model, diabetic mice, transdermal patch; assay type: in vivo; conditions: transdermal patch delivery; controls Day 45+
Text: as §1
30 μm fresh frozen sections were washed with PBS and stained with 10 μM Dihydroethidium (DHE, invitrogen) at 37 C for 30 minutes. Slides were then washed with PBS, and Vectashield with DAPI was added.
Transdermal delivery of DFO reduces ROS accumulation and ulcer formation: We have completed studies examining the ability of our DFO patch to ameliorate diabetes-associated deficits in wound healing using our pressure ulcer model. This injury model causes increased levels of ROS, as assayed using dihydroethidium (DHE) fluorescent staining.

VEGF = VEGF ELISA of harvested wounds; assay type: in vivo, murine; conditions: control 100 ng/ml
Protocol: ELISA. Total protein was isolated from harvested wounds by homogenizing tissue in RIPA buffer. VEGF and SDF-1 levels were measured using the Quantikine murine VEGF and SDF-1 ELISA kits (R&D Systems, Minneapolis, Minn.) according to manufacturer's instructions.

**Q.** For `CC(=O)N(O)CCCCCNC(=O)CCC(=O)N(O)CCCCCNC(=O)CCC(=O)N(O)CCCCCN` [deferoxamine], which ulcer closure date ([1]; controls day 19) is on record?
**A.** Its ulcer closure date is 17 days.

**Q.** And the Ulcer incidence ([1]; pressure ulcer model, controls 100%)?
**A.** The Ulcer incidence was 33%.

**Q.** What about the wound closure [2] of the same compound?
**A.** Its wound closure is 13 days.

**Q.** What about the “DFO uptake into the skin / DFO delivery” value ([3]; reverse micelles destabilized using 5% DMSO, listed as DFO) of the same compound?
**A.** Its value is “inhibit DFO delivery; also recorded: significantly reduces the DFO uptake into the skin”.

**Q.** What about the drug penetration ([3]; without an occlusive backing) of the same compound?
**A.** The drug penetration was “very minimal drug penetration”.

**Q.** And the “reduction in skin penetration of DFO” value ([3]; without backing membrane)?
**A.** Its value is 10 fold.

**Q.** And the diabetic ulcer closure (diabetic ulcers)?
**A.** The diabetic ulcer closure was 30 days.

**Q.** What about the “VEGF via ELISA” value (VEGF) of the same compound?
**A.** Its value is 200 ng/mL.
